Experimental data reported in ChEMBL document CHEMBL6134788, “Development of naphthalimide hydrazide derivatives as potent antibacterial agents against carbapenem-resistant A. baumannii” (RSC Med Chem, 2024).
Values after ≈ are worked out from the molar mass of the structure shown.

Columns and labels:
[1] = Selectivity index, ratio of CC50 for cytotoxicity against African green monkey VERO cells to MIC for antibacterial activity against carbapenem-resistant Acinetobacter baumannii BAA 1605 assessed as inhibition of bacterial growth; format: toxicity, cell-based; settings: read-out: Selectivity Index
[2] = system: Acinetobacter baumannii; test: Antibacterial activity against carbapenem-resistant Acinetobacter baumannii BAA 1605 assessed as inhibition of bacterial growth incubated for 16 to 18 hrs by CLSI protocol based method; format: functional; settings: time 16-18 hrs
[3] = Cytotoxicity against African green monkey Vero cells assessed as reduction in cell viability incubated for 72 hrs by MTT assay; format: toxicity, cell-based; settings: chlorocebus sabaeus
[4] = system: Pseudomonas aeruginosa; test: Antibacterial activity against Pseudomonas aeruginosa ATCC 27853 assessed as inhibition of bacterial growth incubated for 16 to 18 hrs by CLSI protocol based method; format: functional; settings: time 16-18 hrs, read-out: MIC100
[5] = system: Acinetobacter baumannii; test: Antibacterial activity against multi-drug resistant Acinetobacter baumannii clinical isolate 12 assessed as inhibition of bacterial growth incubated for 16 to 18 hrs by CLSI protocol based method; format: functional; settings: time 16-18 hrs, read-out: MIC100
[6] = system: Klebsiella pneumoniae; test: Antibacterial activity against Klebsiella pneumoniae BAA 1705 assessed as inhibition of bacterial growth incubated for 16 to 18 hrs by CLSI protocol based method; format: functional; settings: time 16-18 hrs, read-out: MIC100
[7] = system: Acinetobacter baumannii; test: Antibacterial activity against multi-drug resistant Acinetobacter baumannii clinical isolate 4 assessed as inhibition of bacterial growth incubated for 16 to 18 hrs by CLSI protocol based method; format: functional; settings: time 16-18 hrs, read-out: MIC100
[8] = system: Acinetobacter baumannii; test: Antibacterial activity against multi-drug resistant Acinetobacter baumannii clinical isolate 7 assessed as inhibition of bacterial growth incubated for 16 to 18 hrs by CLSI protocol based method; format: functional; settings: time 16-18 hrs, read-out: MIC100
[9] = system: Acinetobacter baumannii; test: Antibacterial activity against multi-drug resistant Acinetobacter baumannii clinical isolate 3 assessed as inhibition of bacterial growth incubated for 16 to 18 hrs by CLSI protocol based method; format: functional; settings: time 16-18 hrs, read-out: MIC100
[10] = system: Staphylococcus aureus; test: Antibacterial activity against Staphylococcus aureus ATCC 29213 assessed as inhibition of bacterial growth incubated for 16 to 18 hrs by CLSI protocol based method; format: functional; settings: time 16-18 hrs, read-out: MIC100
[11] = system: Acinetobacter baumannii; test: Antibacterial activity against multi-drug resistant Acinetobacter baumannii WL-487 assessed as inhibition of bacterial growth incubated for 16 to 18 hrs by CLSI protocol based method; format: functional; settings: time 16-18 hrs, read-out: MIC100
[12] = system: Acinetobacter baumannii; test: Antibacterial activity against multi-drug resistant Acinetobacter baumannii clinical isolate 9 assessed as inhibition of bacterial growth incubated for 16 to 18 hrs by CLSI protocol based method; format: functional; settings: time 16-18 hrs, read-out: MIC100
[13] = system: Acinetobacter baumannii; test: Antibacterial activity against multi-drug resistant Acinetobacter baumannii clinical isolate 8 assessed as inhibition of bacterial growth incubated for 16 to 18 hrs by CLSI protocol based method; format: functional; settings: time 16-18 hrs, read-out: MIC100
[14] = system: Acinetobacter baumannii; test: Antibacterial activity against multi-drug resistant Acinetobacter baumannii 5-032 assessed as inhibition of bacterial growth incubated for 16 to 18 hrs by CLSI protocol based method; format: functional; settings: time 16-18 hrs, read-out: MIC100
[15] = system: Acinetobacter baumannii; test: Antibacterial activity against multi-drug resistant Acinetobacter baumannii WL-136 assessed as inhibition of bacterial growth incubated for 16 to 18 hrs by CLSI protocol based method; format: functional; settings: time 16-18 hrs, read-out: MIC100
[16] = system: Acinetobacter baumannii; test: Antibacterial activity against multi-drug resistant Acinetobacter baumannii clinical isolate 6 assessed as inhibition of bacterial growth incubated for 16 to 18 hrs by CLSI protocol based method; format: functional; settings: time 16-18 hrs, read-out: MIC100
[17] = system: Acinetobacter baumannii; test: Antibacterial activity against multi-drug resistant Acinetobacter baumannii 5-143 assessed as inhibition of bacterial growth incubated for 16 to 18 hrs by CLSI protocol based method; format: functional; settings: time 16-18 hrs, read-out: MIC100
[18] = system: Acinetobacter baumannii; test: Antibacterial activity against multi-drug resistant Acinetobacter baumannii clinical isolate 1 assessed as inhibition of bacterial growth incubated for 16 to 18 hrs by CLSI protocol based method; format: functional; settings: time 16-18 hrs, read-out: MIC100
[19] = system: Acinetobacter baumannii; test: Antibacterial activity against multi-drug resistant Acinetobacter baumannii H72721 assessed as inhibition of bacterial growth incubated for 16 to 18 hrs by CLSI protocol based method; format: functional; settings: time 16-18 hrs, read-out: MIC100
[20] = system: Acinetobacter baumannii; test: Antibacterial activity against multi-drug resistant Acinetobacter baumannii clinical isolate 11 assessed as inhibition of bacterial growth incubated for 16 to 18 hrs by CLSI protocol based method; format: functional; settings: time 16-18 hrs, read-out: MIC100
[21] = system: Acinetobacter baumannii; test: Antibacterial activity against multi-drug resistant Acinetobacter baumannii Naval-81 assessed as inhibition of bacterial growth incubated for 16 to 18 hrs by CLSI protocol based method; format: functional; settings: time 16-18 hrs, read-out: MIC100
[22] = system: Acinetobacter baumannii; test: Antibacterial activity against multi-drug resistant Acinetobacter baumannii Naval-18 assessed as inhibition of bacterial growth incubated for 16 to 18 hrs by CLSI protocol based method; format: functional; settings: time 16-18 hrs, read-out: MIC100
[23] = system: Escherichia coli; test: Antibacterial activity against Escherichia coli ATCC 25922 assessed as inhibition of bacterial growth incubated for 16 to 18 hrs by CLSI protocol based method; format: functional; settings: time 16-18 hrs, read-out: MIC100
[24] = system: Acinetobacter baumannii; test: Antibacterial activity against multi-drug resistant Acinetobacter baumannii clinical isolate 5 assessed as inhibition of bacterial growth incubated for 16 to 18 hrs by CLSI protocol based method; format: functional; settings: time 16-18 hrs, read-out: MIC100
[25] = system: Acinetobacter baumannii; test: Antibacterial activity against Acinetobacter baumannii ATCC 17978 assessed as inhibition of bacterial growth incubated for 16 to 18 hrs by CLSI protocol based method; format: functional; settings: time 16-18 hrs, read-out: MIC100
[26] = system: Acinetobacter baumannii; test: Antibacterial activity against multi-drug resistant Acinetobacter baumannii clinical isolate 10 assessed as inhibition of bacterial growth incubated for 16 to 18 hrs by CLSI protocol based method; format: functional; settings: time 16-18 hrs, read-out: MIC100
[27] = system: Acinetobacter baumannii; test: Antibacterial activity against multi-drug resistant Acinetobacter baumannii 5-109 assessed as inhibition of bacterial growth incubated for 16 to 18 hrs by CLSI protocol based method; format: functional; settings: time 16-18 hrs, read-out: MIC100
[28] = system: Acinetobacter baumannii; test: Antibacterial activity against multi-drug resistant Acinetobacter baumannii NR-17777 assessed as inhibition of bacterial growth incubated for 16 to 18 hrs by CLSI protocol based method; format: functional; settings: time 16-18 hrs, read-out: MIC100
[29] = system: Acinetobacter baumannii; test: Antibacterial activity against multi-drug resistant Acinetobacter baumannii BC-5 assessed as inhibition of bacterial growth incubated for 16 to 18 hrs by CLSI protocol based method; format: functional; settings: time 16-18 hrs, read-out: MIC100
[30] = system: Acinetobacter baumannii; test: Antibacterial activity against multi-drug resistant Acinetobacter baumannii 5-189 assessed as inhibition of bacterial growth incubated for 16 to 18 hrs by CLSI protocol based method; format: functional; settings: time 16-18 hrs, read-out: MIC100
[31] = system: Acinetobacter baumannii; test: Antibacterial activity against multi-drug resistant Acinetobacter baumannii clinical isolate 2 assessed as inhibition of bacterial growth incubated for 16 to 18 hrs by CLSI protocol based method; format: functional; settings: time 16-18 hrs, read-out: MIC100
[32] = system: Acinetobacter baumannii; test: Antibacterial activity against multi-drug resistant Acinetobacter baumannii Naval-17 assessed as inhibition of bacterial growth incubated for 16 to 18 hrs by CLSI protocol based method; format: functional; settings: time 16-18 hrs, read-out: MIC100

| Compound | selectivity ratio [1] | CC50 at 72 h [3] [µg/mL] | MIC [5] [µg/mL] | MIC [7] [µg/mL] | MIC [8] [µg/mL] | MIC [9] [µg/mL] | MIC [11] [µg/mL] | MIC [12] [µg/mL] | MIC [13] [µg/mL] | MIC [14] [µg/mL] | MIC ([2]; read-out: MIC100) [µg/mL] | MIC [15] [µg/mL] | MIC [16] [µg/mL] | MIC [17] [µg/mL] | MIC [18] [µg/mL] | MIC [19] [µg/mL] | MIC [20] [µg/mL] | MIC [21] [µg/mL] | MIC [22] [µg/mL] | MIC [24] [µg/mL] | other results |
| --- | --- | --- | --- | --- | --- | --- | --- | --- | --- | --- | --- | --- | --- | --- | --- | --- | --- | --- | --- | --- | --- |
| COc1cccc2c1C(=O)c1c(O)c3c(c(O)c1C2=O)C[C@@](O)(C(=O)CO)C[C@@H]3O[C@H]1C[C@H](N)[C@H](O)[C@H](C)O1 [DOXORUBICIN] | < 1 | < 10 |  |  |  |  |  |  |  |  |  |  |  |  |  |  |  |  |  |  | MIC ([2]; read-out: MIC): > 64 µg/mL |
| O=C(CCN1C(=O)c2cccc3cccc(c23)C1=O)NNc1ccc(F)cc1 | 80 | 80 (≈ 212 µM) | 2 (≈ 5.3 µM) | 2 (≈ 5.3 µM) | 2 (≈ 5.3 µM) | 0.5 (≈ 1.32 µM) | 1 (≈ 2.65 µM) | 2 (≈ 5.3 µM) | 2 (≈ 5.3 µM) | 4 (≈ 10.6 µM) | 1 (≈ 2.65 µM) | 2 (≈ 5.3 µM) | 4 (≈ 10.6 µM) | 2 (≈ 5.3 µM) | 2 (≈ 5.3 µM) | 2 (≈ 5.3 µM) | 2 (≈ 5.3 µM) | 2 (≈ 5.3 µM) | 2 (≈ 5.3 µM) | 4 (≈ 10.6 µM) | MIC [4]: > 64 µg/mL; MIC [6]: > 64 µg/mL; MIC [10]: > 64 µg/mL; MIC [23]: > 64 µg/mL; MIC [25]: 1 µg/mL (≈ 2.65 µM); MIC [26]: 2 µg/mL (≈ 5.3 µM); MIC [27]: 4 µg/mL (≈ 10.6 µM); MIC [28]: 4 µg/mL (≈ 10.6 µM); MIC [29]: 1 µg/mL (≈ 2.65 µM); MIC [30]: 4 µg/mL (≈ 10.6 µM); MIC [31]: 2 µg/mL (≈ 5.3 µM); MIC [32]: 2 µg/mL (≈ 5.3 µM) |
| C[C@@H](O)[C@H]1C(=O)N2C(C(=O)O)=C(S[C@@H]3CN[C@H](C(=O)N(C)C)C3)[C@H](C)[C@H]12 [MEROPENEM] |  |  | > 64 | 32 (≈ 83.4 µM) | 2 (≈ 5.22 µM) | 16 (≈ 41.7 µM) | 1 (≈ 2.61 µM) | > 64 | 64 (≈ 167 µM) | 4 (≈ 10.4 µM) | 16 (≈ 41.7 µM) | 2 (≈ 5.22 µM) | > 64 | 8 (≈ 20.9 µM) | 16 (≈ 41.7 µM) | 32 (≈ 83.4 µM) | 64 (≈ 167 µM) | 4 (≈ 10.4 µM) | 64 (≈ 167 µM) | > 64 | MIC [25]: 0.5 µg/mL (≈ 1.3 µM); MIC [26]: 16 µg/mL (≈ 41.7 µM); MIC [27]: 4 µg/mL (≈ 10.4 µM); MIC [28]: 4 µg/mL (≈ 10.4 µM); MIC [29]: > 64 µg/mL; MIC [30]: 2 µg/mL (≈ 5.22 µM); MIC [31]: 32 µg/mL (≈ 83.4 µM); MIC [32]: 4 µg/mL (≈ 10.4 µM) |
